The values below come from patent US11667651B2, “Aminopyridine derivatives as phosphatidylinositol phosphate kinase inhibitors” (HiberCell, Inc., priority 2017, dated 2023).

One assay deals with T1, PIP4K2A (Homo sapiens, UniProt P48426).
T1 sequence (P48426 1-406): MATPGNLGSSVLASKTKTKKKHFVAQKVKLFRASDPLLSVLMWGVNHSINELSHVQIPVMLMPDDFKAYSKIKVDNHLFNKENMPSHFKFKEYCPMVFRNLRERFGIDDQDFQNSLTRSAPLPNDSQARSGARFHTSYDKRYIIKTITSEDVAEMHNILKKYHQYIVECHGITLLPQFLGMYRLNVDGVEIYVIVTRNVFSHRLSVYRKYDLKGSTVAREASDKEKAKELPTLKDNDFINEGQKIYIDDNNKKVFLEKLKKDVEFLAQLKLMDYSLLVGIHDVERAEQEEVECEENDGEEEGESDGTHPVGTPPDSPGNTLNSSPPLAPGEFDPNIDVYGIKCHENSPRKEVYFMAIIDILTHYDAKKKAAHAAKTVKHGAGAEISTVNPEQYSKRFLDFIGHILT
Description: ADP-glo kinase assay PIP4K 2A (Table 3). The settings on record: compounds listed under IC50 bins. Type of assay: biochemical. Also on record: made in house; host or cells: E. coli. The method, boiled down: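 Full-length PIP4K2A (4 nM in the mix) with 100 μM PI(5)P diC8 pre-incubated 15 min with compound in MOPS pH 7.2, 25 mM MgCl2; ATP added (60 μM solution), 1 h at RT. ADP formed read by ADP-Glo luminescence; 10-point curves versus DMSO controls fitted to IC50.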

In the next assay the target is T2, PIP4K2B (Homo sapiens, UniProt P78356).
T2 construct: made in house; host or cells: E. coli
T2 sequence (P78356 1-416): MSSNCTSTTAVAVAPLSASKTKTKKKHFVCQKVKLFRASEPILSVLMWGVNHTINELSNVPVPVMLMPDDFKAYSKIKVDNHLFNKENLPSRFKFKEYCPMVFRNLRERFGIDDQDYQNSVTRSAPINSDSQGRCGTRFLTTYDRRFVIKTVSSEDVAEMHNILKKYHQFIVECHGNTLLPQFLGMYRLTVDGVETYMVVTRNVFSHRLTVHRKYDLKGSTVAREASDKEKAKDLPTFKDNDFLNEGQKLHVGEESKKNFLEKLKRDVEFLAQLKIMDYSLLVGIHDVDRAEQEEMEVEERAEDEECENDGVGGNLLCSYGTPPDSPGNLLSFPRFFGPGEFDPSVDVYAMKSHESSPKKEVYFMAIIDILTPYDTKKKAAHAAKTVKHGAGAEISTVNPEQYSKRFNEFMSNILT
The assay is described as follows: Trans-FI P kinase assay PIP4K2B (Table 4). It counts as biochemical. The settings on record: compounds listed under IC50 bins; read-out: Trans-FI P kinase assays: PIP4K2B IC50. The method, boiled down: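 Transcreener FI detection (Ex 584/Em 623) of GDP, converted via calibration curve, gives IC50 from residual activity versus log concentration (highest 4.8 μM). Reaction: 80 μM PI5P plus DOPE carrier, 100 μM GTP, 5 nM GST-tagged enzyme, pH 7.3 HEPES with MgCl2 and 5% DMSO, 2 h after 1 h enzyme-compound preincubation at 27° C.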

As a reminder, the IC50 is the concentration that inhibits the measured activity by half. As for `O=C1CCCN1c1ccc(-c2ccc(Nc3cnc4c(c3)N3C(=O)CC[C@@H]3CO4)nc2)cc1F` [Example 173, (R)-2-((5-(3-fluoro-4-(2-oxopyrrolidin-1-yl)phenyl)pyridin-2-yl)amino)-6,6a,7,8-tetrahydro-9H-pyrido[2,3-b]pyrrolo[1,2-d][1,4]oxazin-9-one], the IC50 on PIP4K2A and on PIP4K2B was 10 to 100 nM throughout.
As for `O=C1NCCN1c1cncc(Nc2ccc(-c3ccc(N4CCCC4=O)c(F)c3)cn2)c1` [Example 272, 1-(5-((5-(3-fluoro-4-(2-oxopyrrolidin-1-yl)phenyl)pyridin-2-yl)amino)pyridin-3-yl)imidazolidin-2-one], the IC50 fell in the range of 100 to 1000 nM against PIP4K2A and 10 to 100 nM at PIP4K2B.
For the compound `O=C(Nc1cncc(Nc2ccc(-c3ccc(N4CCCC4=O)cc3)cn2)c1)c1nn[nH]n1` [Example 254, N-(5-((5-(4-(2-oxopyrrolidin-1-yl)phenyl)pyridin-2-yl)amino)pyridin-3-yl)-2H-tetrazole-5-carboxamide], the IC50 against PIP4K2A and at PIP4K2B was 10 to 100 nM throughout.
With `CC1C[C@H]2COc3ncc(Nc4ccc(-c5ccc(N6CCCC6=O)c(F)c5)cn4)cc3N2C1=O` (stereo partly drawn) [Example 261, (6aS)-2-((5-(3-fluoro-4-(2-oxopyrrolidin-1-yl)phenyl)pyridin-2-yl)amino)-8-methyl-6,6a,7,8-tetrahydro-9H-pyrido[2,3-b]pyrrolo[1,2-d][1,4]oxazin-9-one], the figures for the IC50 on PIP4K2A and on PIP4K2B were 1 to 10 nM and 10 to 100 nM, respectively.
`O=C1CCCN1c1ccc(-c2ccc(Nc3cnc4c(c3)N3C(=O)C5(CC5)C[C@H]3CO4)nc2)cc1` [Example 260, (S)-2′-((5-(4-(2-oxopyrrolidin-1-yl)phenyl)pyridin-2-yl)amino)-6a′,7′-dihydro-6′H,9′H-spiro[cyclopropane-1,8′-pyrido[2,3-b]pyrrolo[1,2-d][1,4]oxazin]-9′-one]: the IC50 at PIP4K2A and on PIP4K2B was 1 to 10 nM each time.
As to `O=C1CCCN1c1ccc(-c2cnc(Nc3cnc4c(c3)N3C(=O)C5(CC5)C[C@H]3CO4)cc2C2CC2)cc1` [Example 211, (S)-2′-((4-cyclopropyl-5-(4-(2-oxopyrrolidin-1-yl)phenyl)pyridin-2-yl)amino)-6a′,7′-dihydro-6′H,9′H-spiro[cyclopropane-1,8′-pyrido[2,3-b]pyrrolo[1,2-d][1,4]oxazin]-9′-one], the IC50 on PIP4K2A is no more than 1 nM; at PIP4K2B it was 1 to 10 nM.
Turning to `COCc1cc(Nc2cnc3c(c2)N2C(=O)C4(CC4)C[C@H]2CO3)ncc1-c1ccc(N2CCCC2=O)cc1` [Example 207, (S)-2′-((4-(methoxymethyl)-5-(4-(2-oxopyrrolidin-1-yl)phenyl)pyridin-2-yl)amino)-6a′,7′-dihydro-6′H,9′H-spiro[cyclopropane-1,8′-pyrido[2,3-b]pyrrolo[1,2-d][1,4]oxazin]-9′-one], the IC50 against PIP4K2A and on PIP4K2B was 1 to 10 nM each time.
On to `CN1CCC(c2ccc(-c3ccc(Nc4cnc5c(c4)N4C(=O)CC[C@@H]4CO5)nc3)cc2)C1=O` (stereo partly drawn) [Example 269, (6aR)-2-((5-(4-(1-methyl-2-oxopyrrolidin-3-yl)phenyl)pyridin-2-yl)amino)-6,6a,7,8-tetrahydro-9H-pyrido[2,3-b]pyrrolo[1,2d][1,4]oxazin-9-one], for which the IC50 at PIP4K2A and on PIP4K2B was greater than 1000 nM each time.
Turning to `O=C(Nc1cncc(Nc2ccc(-c3ccc(N4CCCC4=O)cc3)cn2)c1)N1CCOCC1` [Example 251, N-(5-((5-(4-(2-oxopyrrolidin-1-yl)phenyl)pyridin-2-yl)amino)pyridin-3-yl)morpholine-4-carboxamide], the results for the IC50 against PIP4K2A and on PIP4K2B were 100 to 1000 nM and 10 to 100 nM, respectively.
The corresponding values for `O=C([C@H]1CCOC1)N1CCN(c2cncc(Nc3ccc(-c4ccc(N5CCCC5=O)cc4)cn3)c2)CC1` [Example 245, (S)-1-(4-(6-((5-(4-(tetrahydrofuran-3-carbonyl)piperazin-1-yl)pyridin-3-yl)amino)pyridin-3-yl)phenyl)pyrrolidin-2-one] are 100 to 1000 nM and 10 to 100 nM.
